# Assay results reported in patent publication US20140235616A1, “PYRAZOLOQUINOLINONE DERIVATIVES, PREPARATION THEREOF AND THERAPEUTIC USE THEREOF” (SANOFI, priority 2011, published 2014).
# Test system: HUVEC cells
# Experiment: Test of in vitro proliferation of HUVEC cells induced with FGF-2
# Details: Homo sapiens, read-out: HUVEC Proliferation IC50 (M)
# Experimental: Test of In Vitro Proliferation of HUVEC Cells Induced with Fibroblast Growth Factor 2 (FGF-2).
# After incubation for 48 hours, the medium is aspirated and replaced with the deprivation medium RPMI1640 mentioned previously. A second stimulation is then performed. The cells are again incubated at 37° C. in the presence of CO2. After incubation for 72 hours, the medium is again aspirated and 100 μl of Cell Titer-GLO™ Luminescent Cell Viability Assay (Promega, G7571) are added over 10 minutes. The amount of ATP present in the cells, measured using a luminometer, is proportional to the number cells per well corresponding to the cell proliferation.
row,Structure (SMILES),IC50
1,"O=c1c2cn[nH]c2c2ccc(-c3ccccc3F)cc2n1CC(F)(F)F [Compound 3, 7-(2-fluorophenyl)-5-(2,2,2-trifluoroethyl)-1,5-dihydro-4H-pyrazolo[4,3-c]quinolin-4-one]",6.6e-07 M
2,"Cc1cc(-c2ccc3c4[nH]ncc4c(=O)n(CC(F)(F)F)c3c2)ccn1 [Compound 186, 7-(2-methylpyrid-4-yl)-5-(2,2,2-trifluoroethyl)-1,5-dihydro-4H-pyrazolo[4,3-c]quinolin-4-one]",3.6e-07 M

# Target: T1, human MetAP2 (Homo sapiens, UniProt P50579)
# T1 construct: made in house; host or cells: Sf9 insect cells (baculovirus)
# Experiment: MetAP2 enzymatic screening test (isolated enzyme, Met-Pro-Arg-pNa substrate, absorbance at 405 nm)
# Type: biochemical
# Details: read-out: % inhibition hMETAP2 at 100 nM
# Experimental: The compounds according to the invention underwent biochemical studies in order to determine their capacity to inhibit the enzyme methionine-aminopeptidase2 (enzymatic test on isolated enzyme).
# MetAP2 Enzymatic Screening Test
# For the enzymatic test, human MetAP2 protein was obtained from a culture supernatant of insect cells (sf9) infected with MetAP2 recombinant baculovirus.
# Before performing the experiment, dialysis of the MetAP2 supernatant is performed over 24 hours at 4° C. in a buffer (10 mM Hepes, 100 mM KCl, 10% glycerol, pH 7.4) in the presence of EDTA (1 mM) over the first 12 hours.
# The dialysis supernatant is recovered and manganese, used as cofactor, is added to a final concentration of 300 μM.
# The enzymatic test is a test in two steps.
# Consequently, the second step consists in reacting the peptides cleaved in the preceding step with a second peptidase in order to release the chromophore.
# T1 sequence (P50579 whole entry): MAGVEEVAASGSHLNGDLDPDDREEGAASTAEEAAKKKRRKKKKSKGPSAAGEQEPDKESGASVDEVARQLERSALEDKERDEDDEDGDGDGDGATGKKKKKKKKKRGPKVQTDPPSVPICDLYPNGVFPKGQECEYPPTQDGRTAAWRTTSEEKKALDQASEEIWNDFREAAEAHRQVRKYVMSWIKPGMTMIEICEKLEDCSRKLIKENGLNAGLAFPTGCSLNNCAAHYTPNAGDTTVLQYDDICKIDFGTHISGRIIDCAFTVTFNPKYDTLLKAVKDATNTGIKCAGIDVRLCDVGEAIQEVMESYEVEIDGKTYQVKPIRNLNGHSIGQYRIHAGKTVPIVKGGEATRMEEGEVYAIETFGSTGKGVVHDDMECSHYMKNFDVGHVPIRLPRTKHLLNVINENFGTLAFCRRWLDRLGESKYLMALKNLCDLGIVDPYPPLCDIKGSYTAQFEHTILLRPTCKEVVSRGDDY
row,inhibition at 0.1 µM,Structure (SMILES)
1,41%,"O=c1c2cn[nH]c2c2ccc(-c3ccc(CO)cn3)cc2n1CC(F)(F)F [Compound 157, 7-(5-hydroxymethylpyrid-2-yl)-5-(2,2,2-trifluoroethyl)-1,5-dihydro-4H-pyrazolo[4,3-c]quinolin-4-one]"
2,40%,"COc1cc(-c2ccc3c4[nH]ncc4c(=O)n(CC(F)(F)F)c3c2)ccn1 [Compound 158, 7-(2-methoxypyrid-4-yl)-5-(2,2,2-trifluoroethyl)-1,5-dihydro-4H-pyrazolo[4,3-c]quinolin-4-one]"
3,40%,"O=c1c2cn[nH]c2c2ccc(-c3ccccc3Cn3cncn3)cc2n1CC(F)(F)F [Compound 159, 7-(2-[1,2,4]triazol-1-ylmethylphenyl)-5-(2,2,2-trifluoroethyl)-1,5-dihydro-4H-pyrazolo[4,3-c]quinolin-4-one]"
4,40%,"O=c1c2cn[nH]c2c2ccc(-c3cncnc3-c3ccccc3)cc2n1CC(F)(F)F [Compound 160, 7-(4-phenylpyrimidin-5-yl)-5-(2,2,2-trifluoroethyl)-1,5-dihydro-4H-pyrazolo[4,3-c]quinolin-4-one]"
5,39%,"COc1cc(C)c(-c2ccc3c4[nH]ncc4c(=O)n(CC(F)(F)F)c3c2)cn1 [Compound 161, 7-(6-methoxy-4-methylpyrid-3-yl)-5-(2,2,2-trifluoroethyl)-1,5-dihydro-4H-pyrazolo[4,3-c]quinolin-4-one]"
6,38%,"CC(C)c1ncncc1-c1ccc2c3[nH]ncc3c(=O)n(CC(F)(F)F)c2c1 [Compound 162, 7-(4-isopropylpyrimidin-5-yl)-5-(2,2,2-trifluoroethyl)-1,5-dihydro-4H-pyrazolo[4,3-c]quinolin-4-one]"
7,38%,"O=c1c2cn[nH]c2c2ccc(-c3cccc(F)n3)cc2n1CC(F)(F)F [Compound 163, 7-(6-fluoropyrid-2-yl)-5-(2,2,2-trifluoroethyl)-1,5-dihydro-4H-pyrazolo[4,3-c]quinolin-4-one]"
8,37%,"COC(=O)c1cccc(-c2ccc3c4[nH]ncc4c(=O)n(CC(F)(F)F)c3c2)n1 [Compound 164, methyl 6-[4-oxo-5-(2,2,2-trifluoroethyl)-4,5-dihydro-1H-pyrazolo[4,3-c]quinolin-7-yl]pyridine-2-carboxylate]"
9,37%,"O=c1c2cn[nH]c2c2ccc(-c3ccc(F)cn3)cc2n1CC(F)(F)F [Compound 165, 7-(5-fluoropyrid-2-yl)-5-(2,2,2-trifluoroethyl)-1,5-dihydro-4H-pyrazolo[4,3-c]quinolin-4-one]"
10,40%,"Cc1ccnc(-c2ccc3c4[nH]ncc4c(=O)n(CC(F)(F)F)c3c2)c1 [Compound 187, 7-(4-methylpyrid-2-yl)-5-(2,2,2-trifluoroethyl)-1,5-dihydro-4H-pyrazolo[4,3-c]quinolin-4-one]"

# Continued, compound first:
row,Structure (SMILES),inhibition at 0.1 µM
1,"O=c1c2cn[nH]c2c2ccc(-c3ccccc3F)cc2n1CC(F)(F)F [Compound 3, 7-(2-fluorophenyl)-5-(2,2,2-trifluoroethyl)-1,5-dihydro-4H-pyrazolo[4,3-c]quinolin-4-one]",34%
2,"CCc1nc(-c2ccccc2-c2ccc3c4[nH]ncc4c(=O)n(CC(F)(F)F)c3c2)no1 [Compound 150, 7-[2-(5-ethyl-[1,2,4]oxadiazol-3-yl)phenyl]-5-(2,2,2-trifluoroethyl)-1,5-dihydro-4H-pyrazolo[4,3-c]quinolin-4-one]",42%
3,"CC(=O)NCc1ccccc1-c1ccc2c3[nH]ncc3c(=O)n(CC(F)(F)F)c2c1 [Compound 151, N-{2-[4-oxo-5-(2,2,2-trifluoroethyl)-4,5-dihydro-1H-pyrazolo[4,3-c]quinolin-7-yl]benzyl}acetamide]",41%
4,"O=c1c2cn[nH]c2c2ccc(-c3ccc(C(O)c4ccccc4)cn3)cc2n1CC(F)(F)F (stereo not drawn) [Compound 152, 7-[5-(hydroxyphenylmethyl)pyrid-2-yl]-5-(2,2,2-trifluoroethyl)-1,5-dihydro-4H-pyrazolo[4,3-c]quinolin-4-one]",41%
5,"N#Cc1cccc(-c2ccc3c4[nH]ncc4c(=O)n(CC(F)(F)F)c3c2)n1 [Compound 153, 6-[4-oxo-5-(2,2,2-trifluoroethyl)-4,5-dihydro-1H-pyrazolo[4,3-c]quinolin-7-yl]pyridine-2-carbonitrile]",41%
6,"O=c1c2cn[nH]c2c2ccc(-c3cccc(CO)n3)cc2n1CC(F)(F)F [Compound 154, 7-(6-hydroxymethylpyrid-2-yl)-5-(2,2,2-trifluoroethyl)-1,5-dihydro-4H-pyrazolo[4,3-c]quinolin-4-one]",41%
7,"CN(C)CCOc1cccc(-c2ccc3c4[nH]ncc4c(=O)n(CC(F)(F)F)c3c2)c1 [Compound 155, 7-[3-(2-dimethylaminoethoxy)phenyl]-5-(2,2,2-trifluoroethyl)-1,5-dihydro-4H-pyrazolo[4,3-c]quinolin-4-one]",41%
8,"COC(=O)c1ccccc1-c1ccc2c3[nH]ncc3c(=O)n(CC(F)(F)F)c2c1 [Compound 156, methyl 2-[4-oxo-5-(2,2,2-trifluoroethyl)-4,5-dihydro-1H-pyrazolo[4,3-c]quinolin-7-yl]benzoate]",41%
9,"Cc1cc(-c2ccc3c4[nH]ncc4c(=O)n(CC(F)(F)F)c3c2)ccn1 [Compound 186, 7-(2-methylpyrid-4-yl)-5-(2,2,2-trifluoroethyl)-1,5-dihydro-4H-pyrazolo[4,3-c]quinolin-4-one]",43%
